Measured values taken from patent US20260283966A1, “PROTEIN PARTICLES AND METHODS OF MAKING AND USING THE SAME” (Dairy Management Inc., priority 2023, published 2026).

Experiment: ABTS radical scavenging capacity
Format: biochemical
Conditions: 0.05 mg mL^−1, all treatments
Method: ABTS radical scavenging capacity was measured according to the previously published protocol with some modifications (Dong et al., 2016). The modifications are as follow: samples were dissolved in phosphate buffer (pH 7.4) to a concentration of 0.05 mg mL^−1. Next, a 200 μl aliquot of the sample was mixed with 20 μl of the ABTS working solution and the mixture was stored in dark for 20 min at room temperature (~25° C.).

N[C@@H](Cc1c[nH]c2ccccc12)C(=O)O [Trp, L-Tryptophan]
relative ABTS radical scavenging capacity: strong relative ABTS radical scavenging capacity and was not influenced by treatments
